Measurements reported in US20210290784A1, “POSITRON EMISSION TOMOGRAPHY (PET) RADIOTRACERS FOR IMAGING MACROPHAGE COLONY-STIMULATING FACTOR 1 RECEPTOR (CSF1R) IN NEUROINFLAMMATION” (The Johns Hopkins University, priority 2018, published 2021).
pIC50, pKd: −log10 of the molar value. Each block holds one compound with its values, some of them ahead of it.

How the values were obtained:
CSF1R [1] = target: T1, CSF1R (Mus musculus, UniProt P09581); conditions: i.p.-LPS mice, blocker 1 mg/kg i.p., 5 min before radiotracer
T1 sequence (P09581 20-977): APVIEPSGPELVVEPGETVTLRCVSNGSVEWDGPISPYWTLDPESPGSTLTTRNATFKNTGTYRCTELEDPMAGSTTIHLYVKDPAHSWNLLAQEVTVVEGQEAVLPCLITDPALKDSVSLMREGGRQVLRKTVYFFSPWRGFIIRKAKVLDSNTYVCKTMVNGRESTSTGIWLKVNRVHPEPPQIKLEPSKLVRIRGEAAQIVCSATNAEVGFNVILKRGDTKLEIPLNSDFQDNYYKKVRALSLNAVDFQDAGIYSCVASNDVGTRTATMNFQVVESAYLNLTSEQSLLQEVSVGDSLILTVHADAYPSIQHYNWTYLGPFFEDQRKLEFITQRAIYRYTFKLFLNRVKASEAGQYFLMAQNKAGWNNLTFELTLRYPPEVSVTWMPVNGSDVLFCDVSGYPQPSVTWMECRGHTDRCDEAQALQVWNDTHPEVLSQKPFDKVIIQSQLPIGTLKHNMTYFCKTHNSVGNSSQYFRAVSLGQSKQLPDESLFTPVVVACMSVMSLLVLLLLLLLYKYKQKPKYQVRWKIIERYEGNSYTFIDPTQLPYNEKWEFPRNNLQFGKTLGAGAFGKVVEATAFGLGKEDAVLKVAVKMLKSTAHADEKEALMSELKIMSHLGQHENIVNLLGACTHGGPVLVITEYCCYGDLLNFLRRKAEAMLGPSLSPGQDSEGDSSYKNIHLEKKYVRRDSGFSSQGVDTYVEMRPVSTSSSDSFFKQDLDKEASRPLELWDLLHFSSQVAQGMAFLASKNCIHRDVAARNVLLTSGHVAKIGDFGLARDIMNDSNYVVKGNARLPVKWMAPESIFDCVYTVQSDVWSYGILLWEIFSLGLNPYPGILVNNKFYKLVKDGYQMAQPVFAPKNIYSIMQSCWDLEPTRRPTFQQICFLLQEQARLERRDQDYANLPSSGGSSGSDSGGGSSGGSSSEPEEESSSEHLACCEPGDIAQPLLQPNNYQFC

CSF1R [2] = target: CSF1R (Homo sapiens, UniProt P07333); assay: CSF1R competition binding assay, KinomeScan, DiscoverX; design: purchased DiscoverX; conditions: commercial assay
CSF1R Human RTK Kinase = target: T2, CSF1R Human RTK Kinase (Homo sapiens, UniProt P07333); assay: CSF1R Human RTK Kinase, Enzymatic Radiometric Assay, Eurofins; format: biochemical; conditions: commercial assay
T2 construct: purchased Eurofins

microglia = conditions: chronic treatment of mice; cited from earlier work
TSPO = target: T3, TSPO (Rattus norvegicus, UniProt P16257); conditions: LPS-treated rats; cited from earlier work
T3 construct: host or cells: LPS-treated rats (cited study)

CSF1R (Homo sapiens, UniProt P07333), sequence (P07333 20-972, species assumed): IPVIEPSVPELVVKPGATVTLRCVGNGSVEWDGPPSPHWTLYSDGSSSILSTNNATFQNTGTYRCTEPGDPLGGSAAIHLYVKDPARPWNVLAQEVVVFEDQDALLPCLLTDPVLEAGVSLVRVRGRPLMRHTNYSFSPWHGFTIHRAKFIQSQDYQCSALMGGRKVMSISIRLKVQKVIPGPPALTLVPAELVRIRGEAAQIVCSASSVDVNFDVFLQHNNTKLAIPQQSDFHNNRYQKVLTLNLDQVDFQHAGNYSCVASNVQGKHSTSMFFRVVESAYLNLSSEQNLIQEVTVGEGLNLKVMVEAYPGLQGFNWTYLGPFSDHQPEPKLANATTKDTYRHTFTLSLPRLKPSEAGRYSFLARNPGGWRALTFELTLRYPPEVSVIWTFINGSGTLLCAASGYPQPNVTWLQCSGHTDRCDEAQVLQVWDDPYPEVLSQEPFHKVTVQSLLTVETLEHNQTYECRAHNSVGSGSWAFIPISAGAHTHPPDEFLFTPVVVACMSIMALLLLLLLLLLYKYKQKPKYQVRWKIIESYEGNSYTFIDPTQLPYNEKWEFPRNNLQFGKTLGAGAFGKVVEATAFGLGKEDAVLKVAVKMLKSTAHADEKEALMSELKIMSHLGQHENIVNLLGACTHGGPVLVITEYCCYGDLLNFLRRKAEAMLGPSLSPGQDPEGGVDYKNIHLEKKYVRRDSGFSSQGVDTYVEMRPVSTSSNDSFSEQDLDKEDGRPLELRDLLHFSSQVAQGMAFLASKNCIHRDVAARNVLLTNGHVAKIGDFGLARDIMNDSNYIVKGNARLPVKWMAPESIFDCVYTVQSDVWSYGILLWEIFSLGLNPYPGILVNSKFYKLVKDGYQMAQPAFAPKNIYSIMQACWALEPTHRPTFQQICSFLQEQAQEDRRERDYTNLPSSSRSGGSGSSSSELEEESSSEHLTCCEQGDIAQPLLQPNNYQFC
T2 sequence (P07333 20-972): as the sequence (P07333 20-972, species assumed) above

SMILES: CN1CCN(c2ccc(NC(=O)c3ccc(C#N)o3)c(N3CCCCC3)c2)CC1 [1a JHU11744, 5-Cyano-N-(4-(4-methylpiperazin-1-yl)-2-(piperidin-1-yl)phenyl)furan-2-carboxamide]
blocking of [11C]CPPC SUVR uptake by CSF1R inhibitor (CSF1R [1]): significantly decreased the uptake to the control level

pKd (CSF1R [2]): < 6.00
SMILES: CN1CCN(c2ccc(NC(=O)c3cc(C#N)co3)c(N3CCCCC3)c2)CC1 [1g JHU11765, 4-Cyano-N-(4-(4-methylpiperazin-1-yl)-2-(piperidin-1-yl)phenyl)furan-2-carboxamide]

pKd (CSF1R [2]): < 6.00
SMILES: CN1CCN(c2ccc(NC(=O)c3coc(C#N)c3)c(N3CCCCC3)c2)CC1 [1h JHU11766, 5-Cyano-N-(4-(4-methylpiperazin-1-yl)-2-(piperidin-1-yl)phenyl)furan-3-carboxamide]

pKd (CSF1R [2]): 7.52
SMILES: CN1CCN(c2ccc(NC(=O)c3cccc(F)n3)c(N3CCCCC3)c2)CC1 [1i JHU11767, 6-Fluoro-N-(4-(4-methylpiperazin-1-yl)-2-(piperidin-1-yl)phenyl)picolinamide]

pIC50 (CSF1R Human RTK Kinase): 7.89 | pKd (CSF1R [2]): 7.49
SMILES: N#Cc1ccc(C(=O)Nc2ccc(N3CCN(CCF)CC3)cc2N2CCCCC2)o1 [1k JHU11763, 5-Cyano-N-(4-(4-(2-fluoroethyl)piperazin-1-yl)-2-(piperidin-1-yl)phenyl)furan-2-carboxamide]

pIC50 (CSF1R Human RTK Kinase): 8.50
SMILES: CC1CCN(c2cc(N3CCN(CCF)CC3)ccc2NC(=O)c2cc(C#N)c[nH]2)CC1 [1l JHU11764, 4-Cyano-N-(4-(4-(2-fluoroethyl)piperazin-1-yl)-2-(4-methylpiperidin-1-yl)phenyl)-1H-pyrrole-2-carboxamide]

SMILES: FC(F)(F)c1ccc(CNc2ccc(Cc3c[nH]c4ncc(Cl)cc34)cn2)cn1 [PLX3397, pexidartinib]
depletion of microglia (microglia): 90%

SMILES: CCC(C)N([11CH3])C(=O)c1cc2ccccc2c(-c2ccccc2Cl)n1 (stereo not drawn) [[^11C]PK11195]
BP value (TSPO): 0.47
